Test [1] addresses Atypical kinase COQ8A, mitochondrial (Homo sapiens, UniProt Q8NI60).
Test [2] concerns the target T1, Bone morphogenetic protein receptor type-2 (Homo sapiens, UniProt Q13873).
T1 sequence (Q13873 whole entry): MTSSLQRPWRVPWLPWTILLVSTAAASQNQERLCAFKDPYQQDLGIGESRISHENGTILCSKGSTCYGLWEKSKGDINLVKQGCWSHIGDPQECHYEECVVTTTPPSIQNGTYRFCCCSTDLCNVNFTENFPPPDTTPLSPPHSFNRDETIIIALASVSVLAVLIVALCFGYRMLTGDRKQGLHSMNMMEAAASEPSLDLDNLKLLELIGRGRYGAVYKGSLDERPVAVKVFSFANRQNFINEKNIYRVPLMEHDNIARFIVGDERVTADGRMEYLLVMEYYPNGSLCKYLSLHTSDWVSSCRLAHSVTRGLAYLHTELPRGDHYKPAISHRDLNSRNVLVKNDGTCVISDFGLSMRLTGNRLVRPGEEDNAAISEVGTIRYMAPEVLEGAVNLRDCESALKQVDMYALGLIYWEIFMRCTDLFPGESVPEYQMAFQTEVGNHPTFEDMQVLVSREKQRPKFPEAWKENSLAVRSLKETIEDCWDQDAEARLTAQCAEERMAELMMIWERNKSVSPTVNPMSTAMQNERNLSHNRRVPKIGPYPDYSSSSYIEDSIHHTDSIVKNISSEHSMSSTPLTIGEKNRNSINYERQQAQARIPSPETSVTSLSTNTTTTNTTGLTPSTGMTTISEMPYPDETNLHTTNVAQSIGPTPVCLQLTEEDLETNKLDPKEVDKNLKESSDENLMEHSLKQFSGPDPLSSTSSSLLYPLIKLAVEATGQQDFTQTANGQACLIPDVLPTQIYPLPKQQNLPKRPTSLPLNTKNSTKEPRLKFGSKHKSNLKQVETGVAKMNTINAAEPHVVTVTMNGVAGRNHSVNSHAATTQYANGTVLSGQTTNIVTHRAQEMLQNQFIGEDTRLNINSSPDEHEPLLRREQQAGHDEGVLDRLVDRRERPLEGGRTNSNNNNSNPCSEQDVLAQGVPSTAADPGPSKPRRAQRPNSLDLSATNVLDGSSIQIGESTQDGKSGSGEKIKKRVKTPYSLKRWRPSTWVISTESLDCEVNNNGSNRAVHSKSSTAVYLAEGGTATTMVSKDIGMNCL

Test [3] concerns the target Citron Rho-interacting kinase (Homo sapiens, UniProt O14578).
Test [4] addresses DnaJ homolog subfamily A member 1 (Homo sapiens, UniProt P31689).
In test [5] the target is Tyrosine-protein kinase HCK (Homo sapiens, UniProt P08631).
Test [6] addresses T2, Dual specificity mitogen-activated protein kinase kinase 6 (Homo sapiens, UniProt P52564).
T2 sequence (P52564 whole entry): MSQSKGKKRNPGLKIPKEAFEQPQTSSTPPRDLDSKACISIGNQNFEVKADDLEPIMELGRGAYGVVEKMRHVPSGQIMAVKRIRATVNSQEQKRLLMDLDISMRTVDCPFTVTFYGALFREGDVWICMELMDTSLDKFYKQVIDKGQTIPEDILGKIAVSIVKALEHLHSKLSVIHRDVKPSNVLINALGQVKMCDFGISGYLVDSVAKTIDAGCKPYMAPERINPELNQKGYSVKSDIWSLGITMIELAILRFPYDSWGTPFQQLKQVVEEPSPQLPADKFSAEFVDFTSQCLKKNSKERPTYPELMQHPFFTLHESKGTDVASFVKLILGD

Test [7] deals with T3, Mitogen-activated protein kinase kinase kinase 6 (Homo sapiens, UniProt O95382).
T3 sequence (O95382 whole entry): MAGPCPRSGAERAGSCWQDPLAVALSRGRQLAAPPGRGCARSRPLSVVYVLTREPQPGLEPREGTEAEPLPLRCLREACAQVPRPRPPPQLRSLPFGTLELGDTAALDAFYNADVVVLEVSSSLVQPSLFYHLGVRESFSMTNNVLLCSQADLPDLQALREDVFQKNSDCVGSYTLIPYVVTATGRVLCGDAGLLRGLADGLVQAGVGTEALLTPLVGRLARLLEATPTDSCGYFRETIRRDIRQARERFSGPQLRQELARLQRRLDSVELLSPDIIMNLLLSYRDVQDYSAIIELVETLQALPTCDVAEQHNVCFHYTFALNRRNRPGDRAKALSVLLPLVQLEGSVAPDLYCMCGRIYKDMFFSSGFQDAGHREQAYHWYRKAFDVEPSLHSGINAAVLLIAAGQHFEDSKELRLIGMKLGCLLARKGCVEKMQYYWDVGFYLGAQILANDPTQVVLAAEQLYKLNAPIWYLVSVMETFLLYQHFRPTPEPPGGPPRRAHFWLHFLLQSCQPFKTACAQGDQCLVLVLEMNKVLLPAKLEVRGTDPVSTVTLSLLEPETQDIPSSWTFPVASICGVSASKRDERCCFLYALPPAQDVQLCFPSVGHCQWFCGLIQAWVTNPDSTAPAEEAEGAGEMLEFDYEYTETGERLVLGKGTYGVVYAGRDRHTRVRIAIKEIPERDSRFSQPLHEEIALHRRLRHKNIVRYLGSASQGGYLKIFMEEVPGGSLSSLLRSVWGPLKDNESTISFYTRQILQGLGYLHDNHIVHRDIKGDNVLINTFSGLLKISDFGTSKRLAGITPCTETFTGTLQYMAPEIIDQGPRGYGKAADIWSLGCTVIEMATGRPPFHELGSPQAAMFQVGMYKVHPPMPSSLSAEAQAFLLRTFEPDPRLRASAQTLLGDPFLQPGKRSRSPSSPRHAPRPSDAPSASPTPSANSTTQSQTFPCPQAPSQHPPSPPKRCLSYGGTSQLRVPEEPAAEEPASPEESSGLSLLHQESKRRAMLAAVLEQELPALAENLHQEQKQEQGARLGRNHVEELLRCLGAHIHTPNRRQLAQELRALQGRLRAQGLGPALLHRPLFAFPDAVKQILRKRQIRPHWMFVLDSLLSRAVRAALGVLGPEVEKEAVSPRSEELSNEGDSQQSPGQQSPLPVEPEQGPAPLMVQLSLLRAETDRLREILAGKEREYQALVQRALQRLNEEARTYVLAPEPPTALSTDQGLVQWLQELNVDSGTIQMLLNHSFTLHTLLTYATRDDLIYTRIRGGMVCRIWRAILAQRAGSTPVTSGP

The source made the active and inactive calls.
Also: in the data inactive means no Kd found up to 30 µM.

Sequence of Atypical kinase COQ8A, mitochondrial (Q8NI60 whole entry): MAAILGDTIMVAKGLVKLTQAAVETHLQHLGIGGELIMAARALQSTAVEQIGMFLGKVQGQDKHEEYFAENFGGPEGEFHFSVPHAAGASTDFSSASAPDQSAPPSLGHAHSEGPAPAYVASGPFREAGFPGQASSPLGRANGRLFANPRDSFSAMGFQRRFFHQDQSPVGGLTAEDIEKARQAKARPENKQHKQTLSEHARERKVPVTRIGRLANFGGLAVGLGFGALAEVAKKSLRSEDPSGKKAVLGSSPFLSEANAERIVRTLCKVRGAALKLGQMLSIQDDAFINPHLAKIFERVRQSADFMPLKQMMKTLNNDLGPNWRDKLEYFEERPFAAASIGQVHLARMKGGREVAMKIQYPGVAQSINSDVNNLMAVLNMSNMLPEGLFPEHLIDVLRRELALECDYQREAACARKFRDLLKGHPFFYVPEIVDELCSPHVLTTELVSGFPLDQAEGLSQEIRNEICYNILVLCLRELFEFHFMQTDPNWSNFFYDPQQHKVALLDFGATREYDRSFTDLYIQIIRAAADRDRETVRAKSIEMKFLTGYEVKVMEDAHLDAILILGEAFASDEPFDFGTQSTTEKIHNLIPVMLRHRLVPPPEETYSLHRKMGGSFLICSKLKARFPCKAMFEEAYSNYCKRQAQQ
Sequence of Citron Rho-interacting kinase (O14578 whole entry): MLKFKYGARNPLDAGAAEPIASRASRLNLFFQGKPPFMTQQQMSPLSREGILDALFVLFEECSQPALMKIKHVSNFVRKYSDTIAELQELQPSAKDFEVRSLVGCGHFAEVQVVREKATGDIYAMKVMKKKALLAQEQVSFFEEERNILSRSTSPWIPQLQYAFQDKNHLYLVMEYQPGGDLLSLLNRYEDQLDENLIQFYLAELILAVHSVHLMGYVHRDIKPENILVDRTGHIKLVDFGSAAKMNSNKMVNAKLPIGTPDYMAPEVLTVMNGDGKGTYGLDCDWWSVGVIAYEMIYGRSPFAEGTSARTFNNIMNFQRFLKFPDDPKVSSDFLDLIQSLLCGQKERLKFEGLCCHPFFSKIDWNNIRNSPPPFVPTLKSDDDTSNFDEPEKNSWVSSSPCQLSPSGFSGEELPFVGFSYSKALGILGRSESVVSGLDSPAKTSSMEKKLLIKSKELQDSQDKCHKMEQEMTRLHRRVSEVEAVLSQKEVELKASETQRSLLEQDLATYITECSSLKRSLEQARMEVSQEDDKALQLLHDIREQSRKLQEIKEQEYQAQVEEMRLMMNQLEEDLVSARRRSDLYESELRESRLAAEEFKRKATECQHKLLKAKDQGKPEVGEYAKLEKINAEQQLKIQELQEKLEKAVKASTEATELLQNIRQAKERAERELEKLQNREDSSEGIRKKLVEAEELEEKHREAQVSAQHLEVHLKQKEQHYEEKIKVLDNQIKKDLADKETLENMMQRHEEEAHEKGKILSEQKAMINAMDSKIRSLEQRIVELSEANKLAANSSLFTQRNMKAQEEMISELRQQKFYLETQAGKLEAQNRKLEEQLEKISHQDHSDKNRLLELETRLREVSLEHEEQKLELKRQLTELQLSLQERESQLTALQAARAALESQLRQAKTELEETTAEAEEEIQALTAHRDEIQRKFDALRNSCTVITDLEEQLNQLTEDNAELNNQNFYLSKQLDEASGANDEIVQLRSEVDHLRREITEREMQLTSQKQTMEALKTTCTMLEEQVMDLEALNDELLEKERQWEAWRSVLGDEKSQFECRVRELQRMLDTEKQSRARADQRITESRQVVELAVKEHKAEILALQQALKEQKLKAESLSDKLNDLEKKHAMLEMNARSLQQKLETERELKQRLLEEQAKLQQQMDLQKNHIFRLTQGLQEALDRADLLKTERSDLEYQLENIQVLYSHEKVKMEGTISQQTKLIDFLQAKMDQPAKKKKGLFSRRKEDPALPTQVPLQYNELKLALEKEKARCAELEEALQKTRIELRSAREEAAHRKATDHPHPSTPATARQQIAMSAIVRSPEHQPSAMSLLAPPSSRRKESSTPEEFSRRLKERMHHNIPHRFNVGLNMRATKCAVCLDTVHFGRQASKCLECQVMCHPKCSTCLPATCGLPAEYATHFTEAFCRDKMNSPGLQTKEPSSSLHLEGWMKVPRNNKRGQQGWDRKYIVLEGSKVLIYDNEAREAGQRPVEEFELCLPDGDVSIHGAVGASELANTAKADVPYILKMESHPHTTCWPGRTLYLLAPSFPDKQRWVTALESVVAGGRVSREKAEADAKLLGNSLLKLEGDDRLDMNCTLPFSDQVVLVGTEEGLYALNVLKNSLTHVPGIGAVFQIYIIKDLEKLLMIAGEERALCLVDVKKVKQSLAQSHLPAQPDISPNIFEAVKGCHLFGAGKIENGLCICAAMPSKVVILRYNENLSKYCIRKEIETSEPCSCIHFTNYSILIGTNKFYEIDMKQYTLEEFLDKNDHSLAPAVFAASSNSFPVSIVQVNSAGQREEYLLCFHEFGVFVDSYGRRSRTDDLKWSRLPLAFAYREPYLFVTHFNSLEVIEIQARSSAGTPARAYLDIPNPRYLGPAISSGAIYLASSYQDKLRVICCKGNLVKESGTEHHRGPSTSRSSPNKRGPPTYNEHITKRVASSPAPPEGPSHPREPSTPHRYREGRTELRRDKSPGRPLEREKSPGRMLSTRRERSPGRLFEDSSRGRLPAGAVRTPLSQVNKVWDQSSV
Sequence of DnaJ homolog subfamily A member 1 (P31689 whole entry): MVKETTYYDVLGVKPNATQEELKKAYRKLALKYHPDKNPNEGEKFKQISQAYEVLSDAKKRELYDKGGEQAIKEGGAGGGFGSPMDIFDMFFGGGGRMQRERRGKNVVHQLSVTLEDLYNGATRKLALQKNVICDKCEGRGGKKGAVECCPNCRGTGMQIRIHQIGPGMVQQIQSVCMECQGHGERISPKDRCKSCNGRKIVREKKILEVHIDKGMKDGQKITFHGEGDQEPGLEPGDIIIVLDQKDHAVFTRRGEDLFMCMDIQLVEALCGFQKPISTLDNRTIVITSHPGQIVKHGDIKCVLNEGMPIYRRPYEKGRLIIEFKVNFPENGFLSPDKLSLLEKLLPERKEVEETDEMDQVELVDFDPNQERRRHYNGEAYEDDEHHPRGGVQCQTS
Sequence of Tyrosine-protein kinase HCK (P08631 whole entry): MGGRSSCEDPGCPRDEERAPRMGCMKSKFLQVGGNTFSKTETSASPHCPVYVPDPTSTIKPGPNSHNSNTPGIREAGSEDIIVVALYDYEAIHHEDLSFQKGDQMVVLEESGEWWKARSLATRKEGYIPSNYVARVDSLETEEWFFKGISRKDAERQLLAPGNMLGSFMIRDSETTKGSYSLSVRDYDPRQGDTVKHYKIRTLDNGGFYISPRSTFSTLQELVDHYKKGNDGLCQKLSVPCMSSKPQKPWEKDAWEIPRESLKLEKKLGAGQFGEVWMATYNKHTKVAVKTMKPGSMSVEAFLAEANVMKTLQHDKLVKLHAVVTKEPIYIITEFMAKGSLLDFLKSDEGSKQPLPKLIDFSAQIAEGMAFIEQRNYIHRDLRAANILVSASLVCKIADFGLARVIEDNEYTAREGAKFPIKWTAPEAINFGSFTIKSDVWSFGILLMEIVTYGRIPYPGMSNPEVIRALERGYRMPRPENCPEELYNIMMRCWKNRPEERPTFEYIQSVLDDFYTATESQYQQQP

With `C=CC(=O)Nc1cccc(Nc2nc(Nc3ccc(N4CCN(C(C)=O)CC4)cc3OC)ncc2C(F)(F)F)c1` [ROCILETINIB], the Kd in test [1], in test [2], in test [3], in test [4], in test [5] and in test [6] was > 30 µM (inactive) each time. For the same compound, the Kd in test [7] is > 30 µM (inactive).
For `CCc1cc2c(cc1N1CCC(N3CCOCC3)CC1)C(C)(C)c1[nH]c3cc(C#N)ccc3c1C2=O` [ALECTINIB], the Kd in test [1], in test [2], in test [3], in test [4], in test [5] and in test [6] was > 30 µM (inactive) each time. Also, in test [7], the Kd is > 30 µM (inactive).
As for `COc1cc2ncnc(Nc3ccc(F)c(Cl)c3)c2cc1NC(=O)/C=C/CN1CCCCC1` [DACOMITINIB ANHYDROUS], the Kd in test [1], in test [2], in test [3], in test [4], in test [5] and in test [6] was > 30 µM (inactive) in each case. In test [7], the Kd was > 30 µM (inactive).
Turning to `O=S(=O)(c1cccc2cnccc12)N1CCCNCC1` [FASUDIL], the Kd is > 30 µM (inactive) in test [1]; > 30 µM (inactive) in test [2]; 48.9 µM (active) in test [3]; > 30 µM (inactive) in test [4]; > 30 µM (inactive) in test [5]; > 30 µM (inactive) in test [6]. Also, the Kd in test [7] is > 30 µM (inactive).
On to `Cc1c(NC(=O)OC[C@@H]2COCCN2)cn2ncnc(Nc3ccc4c(cnn4Cc4cccc(F)c4)c3)c12` [AC-480], for which the Kd in test [1], in test [2], in test [3], in test [4], in test [5] and in test [6] was > 30 µM (inactive) each time. Further, the Kd in test [7] was > 30 µM (inactive).
Consider `Cc1cc(-c2cc(OC(=O)c3ccccc3)ccc2Cl)cc2nnc(Nc3ccc(OCCN4CCCC4)cc3)nc12` [TG100-801], for which the Kd in test [1], in test [2], in test [3], in test [4], in test [5] and in test [6] was > 30 µM (inactive) each time. Besides, the Kd in test [7] is > 30 µM (inactive).
`COc1cc2nccc(Oc3ccc(NC(=O)C4(C(=O)Nc5ccc(F)cc5)CC4)cc3)c2cc1OC` [CABOZANTINIB]: the Kd in test [1] was > 30 µM (inactive); in test [2], > 30 µM (inactive); in test [3] it was > 30 µM (inactive); in test [4] it was > 30 µM (inactive); in test [5], 1.1 µM (active); in test [6], > 30 µM (inactive). Also, the Kd in test [7] is > 30 µM (inactive).
Regarding `Cc1c(Cn2c(C)nc3c(C(=O)O)cc(N4CCOCC4)cc32)cccc1C(F)(F)F` [GSK-2636771], the Kd in test [1], in test [2], in test [3], in test [4], in test [5] and in test [6] was > 30 µM (inactive) in each case. Also, in test [7], the Kd was > 30 µM (inactive).
`Cc1cc(Nc2nc(N[C@@H](C)c3ncc(F)cn3)ncc2Cl)n[nH]1` [AZD-1480]: the Kd in test [1], in test [2], in test [3], in test [4], in test [5] and in test [6] was > 30 µM (inactive) in each case. Also, the Kd in test [7] was > 30 µM (inactive).
Consider `Cc1ccc(C(=O)Nc2ccc(Oc3cc4cnn(C)c4cc3-c3cn[nH]c3)c(F)c2)c(=O)n1-c1ccc(F)cc1` [MERESTINIB], for which the Kd in test [1], in test [2], in test [3], in test [4], in test [5] and in test [6] was > 30 µM (inactive) each time. Besides, in test [7], the Kd is > 30 µM (inactive).
For `C[C@]1(O)C[C@@H](c2nc(-c3ccc4ccc(-c5ccccc5)nc4c3)c3c(N)nccn32)C1` [LINSITINIB], the Kd in test [1], in test [2], in test [3], in test [4], in test [5] and in test [6] was > 30 µM (inactive) throughout. The Kd in test [7] is > 30 µM (inactive).
Consider `CNC(=O)c1cc(COc2nnc(Nc3ccc(Cl)cc3)c3ccoc23)ccn1` [TELATINIB], for which the Kd in test [1], in test [2], in test [3], in test [4], in test [5] and in test [6] was > 30 µM (inactive) throughout. Besides, the Kd in test [7] is > 30 µM (inactive).
Regarding `CNC(=O)c1cccc(-c2ccc3c(N4CCOC[C@@H]4C)nc(N4CCOC[C@@H]4C)nc3n2)c1` [VISTUSERTIB], the Kd in test [1], in test [2], in test [3], in test [4], in test [5] and in test [6] was > 30 µM (inactive) in each case. Further, in test [7], the Kd is > 30 µM (inactive).
On to `O=C(NC[C@H](O)CO)c1ccncc1Nc1ccc(I)cc1F` [PIMASERTIB], for which the Kd in test [1], in test [2], in test [3], in test [4], in test [5] and in test [6] was > 30 µM (inactive) in each case. Besides, in test [7], the Kd was > 30 µM (inactive).
